From patent US8148391B2 (Cephalon, Inc., priority 2006, dated 2012)
Read-outs that look alike come from different tables or passages of the source.

How the values were obtained:
[1] = target: T1, baculovirus-expressed ALK (Homo sapiens, UniProt Q9UM73); assay: ALK Kinase Assay (ELISA-type, time-resolved fluorescence); format: biochemical
T1 construct: host or cells: baculovirus expression system
Summary of the method: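 Substrate coating: phospholipase C-γ, 10 μg/mL in TBS. Kinase step: 30 ng/ml ALK, 15 min, 37° C. Detection and analysis: Eu-N1 PT66 antibody, with IC50 fitted as a sigmoidal variable-slope dose-response curve.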

[2] = target: T2, c-Met (cytoplasmic domain) (Homo sapiens, UniProt P08581); assay: c-Met Kinase Assay (same methods as for ALK, with modifications); format: biochemical
T2 construct: 10 ng/mL c-Met (cytoplasmic domain, Invitrogen Corporation #PV3143); purchased Invitrogen Corporation PV3143
Summary of the method: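 This plate-based kinase format uses immobilized phospholipase C-γ as substrate, phosphorylated by c-Met cytoplasmic domain (10 ng/mL) at 37° C for 15 minutes.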

[3] = 1 μM ATP (Km level), read-out: ALK Activity (ALK Kinase Inhibition, IC50)
[4] = 1 μM ATP (Km level), read-out: cMet Activity (c-Met Kinase Inhibition, IC50)
[5] = ALK kinase inhibition, 1 μM ATP (Km level), read-out: ALK Activity
[6] = c-Met kinase inhibition, 1 μM ATP (Km level), read-out: cMet Activity
[7] = 1 μM ATP (Km level), 30 ng/ml ALK, 37° C., 15 minutes, read-out: ALK Activity (ALK kinase inhibition, IC50 class)
[8] = 1 μM ATP (Km level), 10 ng/mL c-Met, read-out: cMet Activity (c-Met kinase inhibition, IC50 class)

T1 sequence (Q9UM73 19-1620): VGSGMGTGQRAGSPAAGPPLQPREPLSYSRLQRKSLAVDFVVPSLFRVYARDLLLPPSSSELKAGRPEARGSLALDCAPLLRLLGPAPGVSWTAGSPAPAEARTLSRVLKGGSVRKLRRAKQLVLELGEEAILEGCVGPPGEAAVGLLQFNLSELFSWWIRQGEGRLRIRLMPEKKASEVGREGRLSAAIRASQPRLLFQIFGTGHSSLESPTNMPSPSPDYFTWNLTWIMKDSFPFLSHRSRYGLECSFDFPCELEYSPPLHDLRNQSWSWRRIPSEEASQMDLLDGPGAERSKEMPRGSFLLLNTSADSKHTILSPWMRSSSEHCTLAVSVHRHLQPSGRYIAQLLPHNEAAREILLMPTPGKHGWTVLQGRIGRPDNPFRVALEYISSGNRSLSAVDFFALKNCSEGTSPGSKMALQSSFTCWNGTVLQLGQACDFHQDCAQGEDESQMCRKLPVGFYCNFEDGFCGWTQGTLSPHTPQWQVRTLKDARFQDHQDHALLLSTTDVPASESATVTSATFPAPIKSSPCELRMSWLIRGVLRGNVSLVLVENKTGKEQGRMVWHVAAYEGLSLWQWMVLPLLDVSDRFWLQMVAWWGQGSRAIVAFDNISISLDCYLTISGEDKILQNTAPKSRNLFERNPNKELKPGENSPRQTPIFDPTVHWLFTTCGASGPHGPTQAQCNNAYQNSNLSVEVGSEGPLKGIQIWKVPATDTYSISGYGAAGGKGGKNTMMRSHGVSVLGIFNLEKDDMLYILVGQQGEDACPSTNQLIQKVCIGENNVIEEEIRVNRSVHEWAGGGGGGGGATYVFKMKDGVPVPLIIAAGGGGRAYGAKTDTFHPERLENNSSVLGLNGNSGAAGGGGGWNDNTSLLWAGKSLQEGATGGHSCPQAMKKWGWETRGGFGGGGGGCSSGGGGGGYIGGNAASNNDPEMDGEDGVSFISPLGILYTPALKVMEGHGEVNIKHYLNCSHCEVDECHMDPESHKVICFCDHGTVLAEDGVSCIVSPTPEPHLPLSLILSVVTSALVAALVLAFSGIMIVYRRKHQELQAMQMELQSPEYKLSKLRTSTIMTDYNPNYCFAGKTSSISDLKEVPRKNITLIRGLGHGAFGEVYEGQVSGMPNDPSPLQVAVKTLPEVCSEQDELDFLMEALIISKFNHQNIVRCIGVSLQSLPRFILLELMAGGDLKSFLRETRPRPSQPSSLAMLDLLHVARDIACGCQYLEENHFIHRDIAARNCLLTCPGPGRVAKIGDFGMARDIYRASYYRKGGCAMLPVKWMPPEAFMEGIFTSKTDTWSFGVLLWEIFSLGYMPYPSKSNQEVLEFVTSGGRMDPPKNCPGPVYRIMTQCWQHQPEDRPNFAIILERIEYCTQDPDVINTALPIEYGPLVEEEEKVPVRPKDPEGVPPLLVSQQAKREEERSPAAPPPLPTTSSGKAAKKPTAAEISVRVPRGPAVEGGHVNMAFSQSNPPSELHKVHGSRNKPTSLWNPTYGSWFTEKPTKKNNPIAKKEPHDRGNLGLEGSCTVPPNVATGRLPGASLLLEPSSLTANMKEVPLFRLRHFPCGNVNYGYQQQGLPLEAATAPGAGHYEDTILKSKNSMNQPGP
T2 sequence (P08581 956-1390 limits assumed): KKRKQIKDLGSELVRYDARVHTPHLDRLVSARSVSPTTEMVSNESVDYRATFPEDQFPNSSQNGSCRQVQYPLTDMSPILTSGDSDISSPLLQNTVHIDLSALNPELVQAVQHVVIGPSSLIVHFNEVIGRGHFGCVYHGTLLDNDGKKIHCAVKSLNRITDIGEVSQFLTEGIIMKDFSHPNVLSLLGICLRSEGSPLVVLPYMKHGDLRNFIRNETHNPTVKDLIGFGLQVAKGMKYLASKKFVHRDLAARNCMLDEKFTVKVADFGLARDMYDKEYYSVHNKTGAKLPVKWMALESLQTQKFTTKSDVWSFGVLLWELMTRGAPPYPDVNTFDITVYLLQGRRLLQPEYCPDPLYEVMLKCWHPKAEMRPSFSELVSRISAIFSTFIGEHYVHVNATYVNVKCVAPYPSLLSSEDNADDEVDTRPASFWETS

IC50 [1, 5] [nM]	IC50 [2, 6] [nM]	IC50 [1, 7] [nM]	IC50 [2, 8] [nM]	SMILES	other results
				COCCN1CCc2ccc(Nc3ncc(Cl)c(Nc4ccccc4-c4ncccc4C)n3)cc2CC1 [Example 972, 5-Chloro-N*2*-[3-(2-methoxy-ethyl)-2,3,4,5-tetrahydro-1H-benzo[d]azepin-7-yl]-N*4*-[2-(3-methyl-pyridin-2-yl)-phenyl]-pyrimidine-2,4-diamine]	IC50 [1, 3]: < 100 nM; IC50 [2, 4]: 100 to 1000 nM
< 100	> 10000			COc1cc2c(cc1Nc1ncc(Cl)c(Nc3ccc(N4CCOCC4)cc3OC)n1)CCN(C[C@H](O)C(F)(F)F)CC2 [Example 462, (S)-3-{7-[5-Chloro-4-(2-methoxy-4-morpholin-4-yl-phenylamino)-pyrimidin-2-ylamino]-8-methoxy-1,2,4,5-tetrahydro-benzo[d]azepin-3-yl}-1,1,1-trifluoro-propan-2-ol]	
				COc1cc2c(cc1Nc1ncc(Cl)c(Nc3ccccc3S(=O)(=O)N3CCOCC3)n1)CCN(CC(=O)N(C)C)CC2 [Example 836, 2-(7-{5-Chloro-4-[2-(morpholine-4-sulfonyl)-phenylamino]-pyrimidin-2-ylamino}-8-methoxy-1,2,4,5-tetrahydro-benzo[d]azepin-3-yl)-N,N-dimethyl-acetamide]	IC50 [1, 3]: < 100 nM; IC50 [2, 4]: > 10000 nM
		100 to 1000	< 100	C#CCNC(=O)c1cccc(F)c1Nc1nc(Nc2ccc3c(c2)NC(=O)C(NC(=O)N2CCCC2)CC3(C)C)ncc1Cl (centres unmarked) [Example 1296, Pyrrolidine-1-carboxylic acid {8-[5-chloro-4-(2-fluoro-6-prop-2-ynylcarbamoyl-phenylamino)-pyrimidin-2-ylamino]-5,5-dimethyl-2-oxo-2,3,4,5-tetrahydro-1H-1-benzazepin-3-yl}-amide]	
< 100	> 10000			COCCN1CCN(C)c2cc(Nc3ncc(Cl)c(NC4C5CCC(C5)C4C(N)=O)n3)c(OC)cc2C1 (stereo not drawn) [Example 491, (2-exo,3-exo)-3-{5-Chloro-2-[7-methoxy-4-(2-methoxy-ethyl)-1-methyl-2,3,4,5-tetrahydro-1H-benzo[e][1,4]diazepin-8-ylamino]-pyrimidin-4-ylamino}-bicyclo[2.2.1]heptane-2-carboxylic acid amide]	
< 100	1000 to 10000			COc1cc(N2CCOCC2)ccc1Nc1nc(Nc2ccc3c(c2)CCN(S(C)(=O)=O)CC3)ncc1Cl [Example 320, 5-Chloro-N*2*-(3-methanesulfonyl-2,3,4,5-tetrahydro-1H-benzo[d]azepin-7-yl]-N*4*-(2-methoxy-4-morpholin-4-yl-phenyl)-pyrimidine-2,4-diamine]	
		< 100	> 10000	COc1cc2c(cc1Nc1ncc(Cl)c(Nc3ccccc3OCC#N)n1)CCN(CC(=O)N(C)C)CC2 [Example 1147, 2-{7-[5-Chloro-4-(2-cyanomethoxy-phenylamino)-pyrimidin-2-ylamino]-8-methoxy-1,2,4,5-tetrahydro-benzo[d]azepin-3-yl}-N,N-dimethyl-acetamide]	
				CNC(=O)c1cccc(F)c1Nc1nc(Nc2ccc3c(c2)N(CCN(C)C)CCCC3(C)C)ncc1Cl [Example 1638, 2-{5-Chloro-2-[1-(2-dimethylamino-ethyl)-5,5-dimethyl-2,3,4,5-tetrahydro-1H-benzo[b]azepin-8-ylamino]-pyrimidin-4-ylamino}-3-fluoro-N-methyl-benzamide]	IC50 ([1]; ALK kinase inhibition, 1 μM ATP, read-out: ALK Activity): < 100 nM; IC50 ([2]; c-Met kinase inhibition, 1 μM ATP, read-out: cMet Activity): < 100 nM
< 100	1000 to 10000			CCN1CCc2ccc(Nc3ncc(Cl)c(Nc4ccc(N5CCOCC5)cc4)n3)cc2CC1 [Example 443, 5-Chloro-N*2*-(3-ethyl-2,3,4,5-tetrahydro-1H-benzo[d]azepin-7-yl)-N*4*-(4-morpholin-4-yl-phenyl)-pyrimidine-2,4-diamine]	
		< 100	> 10000	COc1cc2c(cc1Nc1ncc(Cl)c(Nc3ccc(N(C)C)cc3OC)n1)CCN(Cc1nccn1C)CC2 [Example 1173, 5-Chloro-N*4*-(4-dimethylamino-2-methoxy-phenyl)-N*2*-[8-methoxy-3-(1-methyl-1H-imidazol-2-ylmethyl)-2,3,4,5-tetrahydro-1H-benzo[d]azepin-7-yl]-pyrimidine-2,4-diamine]	
